Data from patent US6384019B1, “Gemcitabine derivatives” (Norsk Hydro ASA, priority 1997, dated 2002).
Values joined by “and” are separate entries in the source; they are usually repeats but may differ in a detail not shown here. Identical values can stand only once. Like-named read-outs stand apart in the source and are kept apart here.

How the values were obtained:
[1] = tested on: human ovarian tumour line A2780; assay: Cytotoxicity, continuous drug exposure 72 hours, SRB assay; assay type: cell-based
From the text: (§1) The cytoxicity activity of Gemcitabine-N^4-elaidic amide and Gemcitabine-5′-elaidic ester were investigated in 2 pairs of rodent and human tumour cell lines, each consisting of a parent line and a subline either resistant or cross-resistant to Gemcitabine.
(§2) The cell lines were the human ovarian tumour line A2780 and subline AG6000 which is resistant to Gemcitabine and has a deficiency of deoxycytidine kinase, and the murine colon tumour line C26A and the subline C26G with no altered deoxycytidine kinase but a 10-fold decrease in thymidine kinase I. The cytotoxicity of each compound was evaluated following continuous drug exposure for 72 hours. The cell numbers were determined by SRB assay, and percentage growth inhibition was calculated for each tumour line as IC50 value, given in μM, that is the concentration of the compound giving rise to a 50% growth inhibition compared to control.

[2] = tested on: murine colon tumour line C26A; assay: as above; assay type: cell-based; settings: 72 hours continuous exposure, read-out: IC50 cytotoxicity C26-A
From the text: as §1, §2

subline C26G = assay: as above; assay type: cell-based, murine; settings: 72 hours continuous exposure, read-out: IC50 cytotoxicity C2G-G
From the text: as §1, §2

[3] = tested on: subline AG6000 (resistant to Gemcitabine, deficiency of deoxycytidine kinase); assay: as above; assay type: cell-based, human
From the text: as §1, §2

CEM cells = assay: Cytostatic activity in CEM cells with and without nucleoside transport modifiers; assay type: cell-based; settings: for Rise in IC50 with the addition of NT inhibitors: with versus without NT inhibitors
Protocol: The cytostatic activity of gemcitabine and gemcitabine-5′-elaidic acid ester in CEM cells was determined with and without the nucleoside transport modifiers Nitrobenzylthioinosine (NBMPR) or Persantine (Pyridamole). […] With the addition of NT inhibitors, there is a ten-fold rise in the IC50 gemcitabine values, while the IC50 gemcitabine-5′-elaidic acid ester is little affected (1.3-1.5 increase).

[4] = tested on: murine colon cancer Co-26; assay: Co-26 inoculated intrasplenic to mice, intraperitoneal treatment; assay type: in vivo
Protocol: (§3) The anti tumour effect of Gemcitabine-N^4-elaidic amide or Gemcitabine-5′-elaidic ester were investigated in-vivo in mice in two different tumour types, both with single and repeated dosing
Balb/c female mice were inoculated with the murine colon cancer Co-26 in the spleen on day 0. In this model, tumours develop mainly in the liver. Intraperitoneal treatment was started on day 1. Single doses of the compounds were tested in comparison with Gemcitabine at single dose. Saline was used as control.
In parallel experiment, dosing was repeated on days 1-11

[5] = tested on: murine lymphatic leukaemia P 388 cells; assay: P-388 ip in mice, single or repeated doses; assay type: in vivo
From the text: as §3
B6D2F1 female mice were implanted with the murine lymphatic leukaemia P 388 cells intraperitoneally. Treatments were initiated on day 1 post implantation of cells intraperitoneally. […] Single dose treatment with Gemcitabine-5′-elaidic ester was effective with prolonged survival time and long term survivor observed compared to the same dose of Gemcitabine.

[6] = cited from earlier work
[7] = Co-26, repeated dosing days 1-11, 1 mg/kg
[8] = Co-26, repeated dosing days 1-11, 4 mg/kg
[9] = Co-26, single dose ip day 1, 75 mg/kg
[10] = Co-26, single dose ip day 1, 100 mg/kg
[11] = P-388, repeated dose days 1-4, 15 Mg/kg
[12] = P-388, repeated dose days 1-11, 1 mg/kg
[13] = P-388, repeated dose days 1-11, 4 mg/kg
[14] = P-388, single dose treatment, 75 mg/kg
[15] = P-388, single dose treatment, 100 mg/kg
[16] = Co-26, single dose ip day 1, 25 mg/kg
[17] = P-388, repeated dose days 1-4, 1 Mg/kg
[18] = P-388, repeated dose days 1-4, 4 Mg/kg

SMILES	Rise in IC50 with the addition of NT inhibitors (CEM cells; CEM cells)	Long term survivors (>46 d) [4, 7]	Mean survival time T/C [4, 7] [%]	Toxic deaths [4, 7]	Long term survivors (>46 d) [4, 8]	Mean survival time T/C [4, 8]	Toxic deaths [4, 8]	Long term survivors (>35 d) [4, 9]	Mean survival time T/C [4, 9] [%]	Toxic deaths [4, 9]	Long term survivors (>35 d) [4, 10]	Mean survival time T/C [4, 10] [%]	Toxic deaths [4, 10]	Long term survivors (>45 d) [5, 12]	Mean survival time T/C [5, 12] [%]	Toxic deaths [5, 12]	Long term survivors (>45 d) [5, 13]	Mean survival time T/C [5, 13] [%]	Toxic deaths [5, 13]	Long term survivors (>35 d) [5, 14]	other results
Nc1ccn([C@@H]2O[C@H](CO)[C@@H](O)C2(F)F)c(=O)n1 [Gemcitabine, 2′,2′-difluoro-deoxycytidine]	ten-fold rise	 2/8	170.6	⅛	 0/8	toxic	 8/8	 2/7	132.8	 0/7	 4/7	116.2	 0/7	 0/6	178.8	 0/6	 0/6	71.9	6/6	 0/6	IC50 ([1]; Homo sapiens, A2780, 72 hours continuous exposure): 0.5 nM; IC50 ([2]; Mus musculus): 5.5 nM; IC50 (subline C26G; Mus musculus): 7.5 nM; IC50 ([3]; Homo sapiens, AG6000, 72 hours continuous exposure): 100000 nM; IC50 (CEM cells; Homo sapiens, CCRF-CEM, read-out: IC50 Persantine 4 μg/ml): 1260 ± 40 nM; IC50 (CEM cells; Homo sapiens, CCRF-CEM, CEM cells, NBMPR 100 μM, read-out: IC50 NBMPR 100 μM): 1110 ± 80 nM; IC50 (CEM cells; Homo sapiens, CCRF-CEM, CEM cells, no inhibitor, read-out: IC50 No inhibitor): 110 ± 10 nM; Long term survivors (>35 d) [5, 11]:  0/6; Mean survival time T/C [5, 11]: 58.0%; Toxic deaths [5, 11]: all animals died of toxicity and  6/6; Mean survival time T/C [5, 14]: 138.9%; Toxic deaths [5, 14]:  0/7; Plasma concentration that inhibits the anti-cancer effect (saturation of the phosphorylation mechanism) [6]: above 35 μM; Plasma concentration with optimal effect [6]: about 20 μM
CCCCCCCC/C=C/CCCCCCCC(=O)OC[C@H]1O[C@@H](n2ccc(N)nc2=O)C(F)(F)[C@@H]1O [Gemcitabine-5′-elaidic ester, Elaidic Acid (5′)-Gemcitabine Ester]	1.3-1.5 fold	⅛	150.6	 0/8	⅜	166.9%	 2/8	 1/7	128.6	 0/7	 4/7	100.1	 0/7	 0/6	317.0	 0/6	 2/6	220.6	 0/6	⅙	IC50 ([1]; 72 hours continuous exposure): < 0.1 nM; IC50 [2]: 0.3 nM; IC50 (subline C26G): 0.5 nM; IC50 ([3]; 72 hours continuous exposure): 100000 nM; IC50 (CEM cells; CEM cells, NBMPR 100 μM, read-out: IC50 NBMPR 100 μM): 72 ± 34 nM; IC50 (CEM cells; CEM cells, Persantine 4 μg/ml, read-out: IC50 Persantine 4 μg/ml): 65 ± 23 nM; IC50 (CEM cells; CEM cells, no inhibitor, read-out: IC50 No inhibitor): 47 ± 6 nM; Potency relative to the mother drug in the "resistant" situation (CEM cells; CEM cells, with NT inhibitors, versus gemcitabine): 15-20 fold; Mean survival time T/C [5, 14]: 186.3%; Toxic deaths [5, 14]:  0/6; Long term survivors (>35 d) [5, 15]:  0/6; Mean survival time T/C [5, 15]: 138.9%; Toxic deaths [5, 15]:  0/6
CCCCCCCC/C=C/CCCCCCCC(=O)Nc1ccn(C2OC(CO)C(O)C2(F)F)c(=O)n1 (centres unmarked) [Gemcitabine-N^4-elaidic amide, Elaidic Acid (N^4)-Gemcitabine Amide]		 2/8	155	 0/8	⅛	185.6%	 0/8							⅙	172.5	 0/6	 0/6	215.7	 0/6		IC50 ([1]; 72 hours continuous exposure): < 0.1 nM; IC50 [2]: < 0.1 nM; IC50 (subline C26G): < 0.1 nM; IC50 ([3]; 72 hours continuous exposure): 35000 nM; Long term survivors (>35 d) [4, 16]: 5/8 and ⅝; Mean survival time T/C [4, 16]: 103.7%; Toxic deaths [4, 16]: ⅛; Long term survivors (>35 d) [5, 17]:  2/6; Mean survival time T/C [5, 17]: 178%; Toxic deaths [5, 17]:  0/6; Long term survivors (>35 d) [5, 18]: ⅙; Mean survival time T/C [5, 18]: 183%; Toxic deaths [5, 18]:  0/6
